Test results published in BindingDB's records for doi:10.1021/acschembio.6b00709 (Technical University of Munich, 2016).

What was measured:
[1] = target: T1, Ephrin type-A receptor 2 [596-900] (Homo sapiens, UniProt P29317); test: Kinobeads Competition Assay
T1 construct: 596-900
T1 sequence (P29317 whole entry): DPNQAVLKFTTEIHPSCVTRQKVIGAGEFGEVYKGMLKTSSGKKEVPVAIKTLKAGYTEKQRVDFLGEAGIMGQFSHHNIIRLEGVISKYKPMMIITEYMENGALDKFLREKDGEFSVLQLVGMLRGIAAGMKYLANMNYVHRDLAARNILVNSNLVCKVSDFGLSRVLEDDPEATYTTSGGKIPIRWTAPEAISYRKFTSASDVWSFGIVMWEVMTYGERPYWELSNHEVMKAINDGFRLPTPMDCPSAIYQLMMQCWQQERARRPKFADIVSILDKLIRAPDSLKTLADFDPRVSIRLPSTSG

[2] = target: T1, Ephrin type-A receptor 2 [596-900]; test: HotSpot Kinase Activity Assay
Excerpt: Refer to Reaction Biology Corps.

Row | SMILES | Kd [1] [nM] | IC50 [2] [nM]
1 | CC(C)c1cc(CNc2nc(Nc3cc(C4CC4)[nH]n3)cc(N3CCN(C)CC3)n2)on1 [4-N-(5-cyclopropyl-1H-pyrazol-3-yl)-6-(4-methylpiperazin-1-yl)-2-N-[(3-propan-2-yl-1,2-oxazol-5-yl)methyl]pyrimidine-2,4-diamine] | 19 | 4
2 | CCS(=O)(=O)c1cccc(-c2cc(C(=O)NC3CCN(C)CC3)c(C)c3[nH]c4ncc(C)cc4c23)c1 [5-(3-ethylsulfonylphenyl)-3,8-dimethyl-N-(1-methylpiperidin-4-yl)-9H-pyrido[2,3-b]indole-7-carboxamide] | 198 | 4.8
3 | CNC(=O)c1nn(C)c2c1C(C)(C)Cc1cnc(Nc3ccc(N4CCN(C)CC4)cc3)nc1-2 [Milciclib] | 672 | 
4 | COc1cc(N2CCC(N3CCN(C)CC3)CC2)ccc1Nc1ncnc(Nc2ccccc2S(=O)(=O)C(C)C)n1 [ASP-3026] | 640 | 
5 | COc1cccc(Nc2ncnn3ccc(CN4CC[C@@H](N)[C@H](O)C4)c23)c1 [BMS-690514] | 961 | 
6 | Cc1ccc(NC(=O)c2ccc(CN3CC[C@H](N(C)C)C3)c(C(F)(F)F)c2)cc1Nc1ncc(-c2cncnc2)cn1 [4-[[(3S)-3-(dimethylamino)pyrrolidin-1-yl]methyl]-N-[4-methyl-3-[(5-pyrimidin-5-ylpyrimidin-2-yl)amino]phenyl]-3-(trifluoromethyl)benzamide] | 192 | 17
7 | CN1CCN(CCOc2cc(OC3CCOCC3)c3c(Nc4c(Cl)ccc5c4OCO5)ncnc3c2)CC1 | 338 | 
8 | COc1cc2c(Nc3ccc(Cl)c(Cl)c3F)ncnc2cc1OCC1C[C@@H]2CN(C)C[C@@H]2C1 (stereo partly drawn) [7-[[(3aS,6aR)-2-methyl-3,3a,4,5,6,6a-hexahydro-1H-cyclopenta[c]pyrrol-5-yl]methoxy]-N-(3,4-dichloro-2-fluorophenyl)-6-methoxyquinazolin-4-amine] | 458 | 
9 | CNC(=O)c1cc(Oc2ccc(NC(=O)Nc3ccc(Cl)c(C(F)(F)F)c3)c(F)c2)ccn1 | 869 | 
10 | C[C@@H](NC(=O)c1ncnc(N)c1Cl)c1ncc(C(=O)Nc2cc(C(F)(F)F)c(Cl)cn2)s1 [MLN-2480] | 484 | 
11 | COc1cc2nccc(Oc3ccc(NC(=O)Nc4cc(C)on4)c(Cl)c3)c2cc1OC [Tivozanib] | 259 | 
12 | COc1cc(Nc2ncc3c(n2)-c2ccc(Cl)cc2C(c2c(F)cccc2OC)=NC3)ccc1C(=O)O [Alisertib] | 187 | 48
